Molecules are shown by their SMILES.

The assay concerns HUV-EC-C cells (human umbilical vein endothelial cells). The experiment in a line: HUV-EC-C assay, VEGF-stimulated (VEGF HUVEC). It counts as cell-based. As for the experimental part: The following protocol may also be used to measure a compound's activity against PDGF-R, FGF-R, VEGF, aFGF or Flk-1/KDR, all of which are naturally expressed by HUV-EC cells.
1. Wash and trypsinize HUV-EC-C cells (human umbilical vein endothelial cells, (American Type Culture Collection; catalogue no. 1730 CRL). Wash with Dulbecco's phosphate-buffered saline (D-PBS; obtained from Gibco BRL; catalogue no. 14190-029) 2 times at about 1 ml/10 cm^2 of tissue culture flask. Trypsinize with 0.05% trypsin-EDTA in non-enzymatic cell dissociation solution (Sigma Chemical Company; catalogue no. C-1544). The 0.05% trypsin is made by diluting 0.25% trypsin/l mM EDTA (Gibco; catalogue no. 25200-049) in the cell dissociation solution. Trypsinize with about 1 ml/25-30 cm^2 of tissue culture flask for about 5 minutes at 37° C. After cells have detached from the flask, add an equal volume of assay medium and transfer to a 50 ml sterile centrifuge tube (Fisher Scientific; catalogue no. 05-539-6).
2. Wash the cells with about 35 ml assay medium in the 50 ml sterile centrifuge tube by adding the assay medium, centrifuge for 10 minutes at approximately 200×g, aspirate the supernatant, and resuspend with 35 ml D-PBS. Repeat the wash two more times with D-PBS, resuspend the cells in about 1 ml assay medium/15 cm^2 of tissue culture flask. […]

Broadly, the IC50 is the point on the concentration scale where inhibition reaches its midpoint. A high value points to a need for much substance. As for `O=C1Nc2ccccc2/C1=C1\CCc2ccccc21` [Compound 10, 3-Indan-1-ylidene-1,3-dihydroindol-2-one], the IC50 worked out at 330 nM.

In turn, `COc1ccc2c(c1)C(CC(=O)O)C/C2=C1/C(=O)Nc2ccccc21` (centres unmarked) [Compound 11, [6-Methoxy-3-(2-oxo-1,2-dihydroindol-3-ylidene)-indan-1-yl]acetic Acid] yielded an IC50 of 50 nM.

The values are drawn from US6642251B1, “Geometrically restricted 2-indolinone derivatives as modulators of protein kinase activity” (Sugen, Inc., priority 1998, dated 2003).
